According to patent publication US20090018118A1, “HETEROCYCLIC COMPOUNDS” (priority 2005, published 2009):
Where a name gives a salt, the structure may show the parent alone. Read-outs that look alike come from different tables or passages of the source.

System: cholesterol biosynthesis in HepG2 cells
Assay: Metabolic labeling of HepG2 cells with [3H]acetate; radio-HPLC sterol profile (inhibition of cholesterol biosynthesis)
Assay type: cell-based, human
Settings: HepG2; for activity at 10 µM: Homo sapiens, 24 h, Table I, sterol level normalized to normal medium (1.00), mean of 4 experiments; for activity at 10 µM / FF-MAS / cholesterol / desmosterol / lanosterol / lathosterol / zymosterol+7-dehydrocholesterol: 10 μM compound; for FF-MAS / cholesterol / desmosterol / lanosterol / lathosterol / zymosterol+7-dehydrocholesterol: Table II (arranged by sterol profile), normalized to normal medium (1.00)
Experimental: In accordance with the aims of the invention, the effect of the novel compounds on inhibition of cholesterol biosynthesis is assessed. An ex vivo method of metabolic labeling of immortal human hepatocytes is employed. The radioactively labeled early precursor of cholesterol [3H]acetate is added to cells with or without addition of an active new compound.
An ex vivo method of metabolic labeling of immortal human hepatocytes is employed. The radioactively labeled early precursor of cholesterol [3H]acetate is added to cells with or without addition of an active compound.
Cell culture incubation with potential inhibitors of cholesterol biosynthesis and statins Human hepatoma cell line (HepG2-ATCC No. HB-8065) is split in the recommended ratio (1:2-3) into 75 cm^2 cell flasks using two flasks per experimental condition. Cells are incubated at 37° C. with 5% CO2 in Dulbeco's modified Eagle medium (DMEM high (Sigma)) containing 5% calf serum (Sigma) and 1% L-glutamine (Sigma). After 24-hours-culturing in the growth medium, the medium is replaced with the one supplemented with 10 μM concentration of a LK compound, potential inhibitor of cholesterol biosynthesis. 10 μM solution of atorvastatin, inhibitor of HMG-CoA reductase, serves as a positive control.
After 24 hours the growth medium is changed and [^3H]acetate (NEN™ Life Science Products) added in a concentration of 40 μCi per ml of the medium (400 μCi per flask). After 4 hours cells are harvested using 2 ml of trypsin (Sigma) and the cell pellet is resuspended in 1 ml of distilled water. Cells are homogenized using the freeze and thaw method. From cell homogenate sterols are extracted and protein concentration determined using the Bio-Rad reagent.
Homogenates are transferred into 4 ml glass vial and sterols are extracted in 3 ml of extraction solution (75% n-heptane: 25% isopropanol (vol./vol.)) with ergosterol as an internal standard. For better extraction 100 μl of 0.3M NaH2PO4 (pH=1.0) is added. Closed vials are vigorously shaken (1800 rpm) for 2 hours. After extraction procedure vials are centrifuged (2000 g, 10 min) and the organic phase is transferred to fresh conical glass tubes. Extraction procedure is repeated using 1 ml of extraction solution for 15 min. Organic phases are pooled. Primary extracts are dried in vacuum centrifuge, redissolved in 3 ml of n-heptane, and incubated for 10 min at room temperature with mild shaking. After centrifugation (10 min, 2000 g) extracts are transferred into fresh glass tubes and stored in dark and cold.
The organic phase is dried, reconstituted in mobile phase for reversed phase HPLC separation and loaded onto a-HPLC column, Prism-RPN, 5 μm, 250×4,6 mm running in 100% acetonitrile at 1.00 ml/min at 40° C. temperature. Scintillation liquid is added after UV detection at 30 ml/h, at room temperature, to evaluate tritium labeled sterols on a radio detector.
Sterols are determined by comparing the eluted peaks with runs of commercial standards of lanosterol, ergosterol, desmosterol, zymosterol, 7-dehydrocholesterol, lathosterol and cholesterol or laboratory standards (FF-MAS-4,4-Dimethylcholesta-8(9),14,24-triene-3β-ol- and T-MAS-4,4-Dimethylcholesta8(9),24,diene-3,6-ol, Laboratory of Reproductive Biology, The Juliane Marie Center for Children, Women and Reproduction, University Hospital of Copenhagen, DK-2100 Copenhagen, Denmark). Results were normalized on ergosterol quantity and protein concentration. Results are presented as a mean from 4 separated experiments.
The influence of a 10 μM solution of novel LK-substances on cholesterol biosynthesis in the assay on HepG2 cells is presented in Table I. Compounds are arranged according to the building blocks, three of them are 2-pyridineethanols, 2-pyridineethylpiperazines and pyridinemethylpiperazines.
Normal medium pertains to cell cultures without a compound of the invention. Its sterol levels were used for normalization. 10 μM solution of atorvastatin serves as a positive control.

[1] = read-out: zymosterol+7-dehydrocholesterol

Row | SMILES | activity at 10 µM (read-out: FF-MAS) [%] | activity at 10 µM (read-out: cholesterol) [%] | activity at 10 µM (read-out: desmosterol) [%] | activity at 10 µM (read-out: lanosterol) [%] | activity at 10 µM (read-out: lathosterol) [%] | activity at 10 µM [1] [%] | FF-MAS | cholesterol | desmosterol | lanosterol | lathosterol | zymosterol+7-dehydrocholesterol | all sterol levels (in words) (10 μM, relative to normal medium (unity)) | FF-MAS accumulation (in words) (10 μM)
1 | OC(CN1CCN(CCc2ccccc2)CC1)c1cccnc1 (centres unmarked) [LK-980, 2-(4-Phenethylpiperazine-1-yl)-1-(pyridine3-yl)-1-ethanol trihydrobromide] | 254 | 5 | 0 | 96 | 49 | 102 | 2.54 | 0.05 | 0.00 | 0.96 | 0.49 | 1.02 |  | 
2 | OC(CN1CCN(CCc2ccccc2)CC1)c1ccncc1 (centres unmarked) [LK-9110B, 2-(4-Phenethylpiperazine-1-yl)-1-(pyridine-4-yl)ethanol] | 374 | 0 | 17 | 96 | 78 | 137 | 3.74 | 0.00 | 0.17 | 0.96 | 0.78 | 1.37 |  | 
3 | Clc1ccc(CCN2CCN(CCc3ccccn3)CC2)cc1Cl [LK-9137, 1-(3,4-Dichlorophenethyl)-4-(2-(pyridin-2-yl)ethyl)piperazine trihydrobromide] | 142 | 6 | 22 | 63 | 60 | 141 | 1.42 | 0.06 | 0.22 | 0.63 | 0.60 | 1.41 |  | 
4 | c1ccc(CCN2CCN(CCCc3cccnc3)CC2)cc1 [LK-9140, 1-Phenethyl-4-(3-(pyridine-3-yl)propyl)piperazine trihydrobromide] | 72 | 0 | 1 | 24 | 3 | 15 | 0.72 | 0.00 | 0.01 | 0.24 | 0.03 | 0.15 | reduce all sterol levels below unity | 
5 | OC(CN1CCN(Cc2ccc(F)cc2)CC1)c1cccnc1 (centres unmarked) [LK-9148, 2-(4-(4-Fluorobenzyl)piperazine-1-yl)-1-(pyridine-3-yl)ethanol trihydrobromide] | 125 | 14 | 38 | 80 | 65 | 144 | 1.25 | 0.14 | 0.38 | 0.80 | 0.65 | 1.44 |  | 
6 | Cc1ccc(C(O)CN2CCN(CCc3ccccc3)CC2)cn1 (centres unmarked) [LK-9139, 2-(4-Phenethylpiperazine-1-yl)-1-(6-methylpyridin-3-yl)ethanol trihydrobromide] | 119 | 1 | 14 | 38 | 15 | 38 | 1.19 | 0.01 | 0.14 | 0.38 | 0.15 | 0.38 |  | 
7 | c1ccc(CCN2CCN(CCc3ccncc3)CC2)cc1 [LK-9118B, 1-Phenethyl-4-(2-(pyridine-4-yl)ethyl)piperazine] | 350 | 0 | 47 | 146 | 23 | 90 | 3.50 | 0.00 | 0.47 | 1.46 | 0.23 | 0.90 |  | 
8 | OC(CN1CCN(c2ccc(F)cc2)CC1)c1cccnc1 (centres unmarked) [LK-9144, 2-(4-(4-Fluorophenyl)piperazine-1-yl)-1-(pyridine-3-yl)ethanol trihydrobromide] | 99 | 9 | 5 | 88 | 56 | 150 | 0.99 | 0.09 | 0.05 | 0.88 | 0.56 | 1.50 |  | 
9 | c1ccc(CCN2CCN(Cc3cccnc3)CC2)cc1 [LK-9108, 1-Phenethyl-4-(pyridine-3-ylmethyl)piperazine trihydrobromide] | 310 | 0 | 0 | 110 | 74 | 140 | 3.10 | 0.00 | 0.00 | 1.10 | 0.74 | 1.40 |  | 
10 | FC(F)(F)c1cnc(N2CCCN(CCc3ccccc3)CC2)c(Cl)c1 [LK-9115, 1-(3-Chloro-5-(trifluoromethyl)pyridine-2-yl)-4-phenethyl-1,4-diazepane trihydrobromide] | 442 | 0 | 0 | 84 | 21 | 91 | 4.42 | 0.00 | 0.00 | 0.84 | 0.21 | 0.91 |  | 
11 | c1ccc(CCN2CCN(Cc3ccc(N4CCOCC4)nc3)CC2)cc1 [LK-9109B, 4-(5-((4-Phenethylpiperazin-1-yl)methyl)pyridine-2-yl)morpholine] | 650 | 0 | 29 | 95 | 9 | 100 | 6.50 | 0.00 | 0.29 | 0.95 | 0.09 | 1.00 |  | notably accumulate FF-MAS
12 | c1ccc(CCN2CCN(CCc3cccnc3)CC2)cc1 [LK-9100, 1-Phenethyl-4-(2-(pyridine-3-yl)ethyl)piperazine trihydrobromide] | 241 | 0 | 0 | 83 | 30 | 74 | 2.41 | 0.00 | 0.00 | 0.83 | 0.30 | 0.74 |  | 
